Source: patent EP0346427B1, “MACROCYCLIC COMPOUNDS” (FISONS plc, priority 1987, dated 1989)

Test system: lymphocytes
Assay: Mixed Lymphocyte Reaction (MLR) II (Example B)
Assay type: cell-based
Conditions: concentration of compound required to inhibit the proliferation of lymphocytes by 50%, cells from two responding donors, 96 hours incubation, ³H-thymidine for the final 24 hours, read-out: IC₅₀
Procedure: Mixed Lymphoctye Reaction (MLR) II
The MLR test was performed in 96-well microtitre plates with each well containing 3 x 10⁵ cells from each of two responding donors in a final volume of 0.2ml RPMI 1640 medium supplemented with 10% human serum, L-glutamine and penicillin/streptomycin. The compound under test was dissolved at 10mg/ml in ethanol and further diluted in RPMI 1640. The cells were incubated at 37 °C in a humidified atmosphere of 5% carbon dioxide for 96 hours. ³H-thymidine (0.5uCi) was added for the final 24 hours of the incubation to provide a measure of proliferation.
A selection of compounds were tested according to Example B. The concentration of compound required to inhibit the proliferation of lymphocytes by 50% was measured, and the results were as follows: […]

SMILES	IC50 [nM]
C=CCC1C=C(C)CC(C)CC(OC)C2OC(O)(C(=O)C(=O)N3CCCCC3C(=O)OC(C(C)=CC3CCC(OC)C(OC)C3)C(C)C(OC)CC1=O)C(C)CC2OC (stereo not drawn) [Example 1, 17-Allyl-1-hydroxy-12-[2-(3,4-dimethoxycyclohexyl)-1-methylvinyl]-14,23,25-trimethoxy-13,19,21,27-tetramethyl-11,28-dioxa-4-azatricyclo[22.3.1.0^4,9]octacos-18-ene-2,3,10,16-tetraone.]	< 1000
C=CCC1C=C(C)CC(C)CC(OC)C2OC(O)(C(=O)C(=O)N3CCCCC3C(=O)OC(C(C)=CC3CCC(OC)C(OC)C3)C(C)C(O)CC1=O)C(C)CC2OC (stereo not drawn) [Example 2, 17-Allyl-1,14-dihydroxy-12-[2-(3,4-dimethoxycyclohexyl) -1-methylvinyl]-23,25-dimethoxy-13,19,21,27-tetramethyl-11, 28-dioxa-4-azatricyclo[22.3.1.0^4,9]octacos-18-ene-2,3,10, 16-tetraone]	< 1000
C=CCC1C=C(C)CC(C)CC(OC)C2OC(O)(C(C)CC2OC)C(O)C(=O)N2CCCCC2C(=O)OC(C(C)=CC2CCC(O)C(OC)C2)C(C)C(O)CC1=O (stereo not drawn) [Example 5, 17-Allyl-1,2,14-trihydroxy-12-[2-(4-hydroxy-3-methoxycyclohexyl)-1-methylvinyl]-23,25-dimethoxy-13,19,21,27-tetra methyl-11,28-dioxa-4-azatricyclo[22.3.1.0^4,9]octacos-18-ene-3,10,16-trione]	< 1000
C=CCC1C=C(C)CC(C)CC(OC)C2OC(O)(C(C)CC2OC)C(O)C(=O)N2CCCCC2C(=O)OC(C(C)=CC2CCC(O)C(OC)C2)C(C)C(O)CC1O (stereo not drawn) [Example 6, 17-Allyl-1,2,14,16-tetrahydroxy-12-[2-(4-hydroxy-3-methoxycyclohexyl)-1-methylvinyl]-23,25-dimethoxy-13,19,21, 27-tetramethyl-11,28-dioxa-4-azatricyclo[22.3.1.0^4,9] octacos-18-ene-3,10-dione]	< 1000
CCCC1C=C(C)CC(C)CC(OC)C2OC(O)(C(=O)C(=O)N3CCCCC3C(=O)OC(C(C)=CC3CCC(O)C(OC)C3)C(C)CCC1=O)C(C)CC2OC (stereo not drawn) [Example 12, 17-Propyl-1-hydroxy-12-[2-(4-hydroxy-3-methoxycyclohexyl)-1-methylvinyl]-23,25-dimethoxy-13,19,21,27-tetra methyl-11,28-dioxa-4-azatricyclo[22.3.1.0^4,9]octacos-18-ene-2,3,10,16-tetraone]	< 1000
C=CCC1C=C(C)CC(C)CC(OC)C2OC(O)(C(C)CC2OC)C(O)C(=O)N2CCCCC2C(=O)OC(C(C)=CC2CCC(O)C(OC)C2)C(C)CCC1=O (stereo not drawn) [Example 15, 17-Allyl-1,2-dihydroxy-12-[2-(4-hydroxy-3-methoxy-cyclohexyl)-1-methylvinyl]-23,25-dimethoxy-13,19,21,27-tetra methyl-11,28-dioxa-4-azatricyclo-[22.3.1.0^4,9]octacos-18-ene-3,10,16-trione]	< 1000
C=CCC1C=C(C)CC(C)CC(OC)C2OC(O)(C(=O)C(=O)N3CCCCC3C(=O)OC(C(C)=CC3CCC(O)C(OC)C3)C(C)CCC1=O)C(C)CC2OC (stereo not drawn) [Example 17, 17-Allyl-l-hydroxy-12-[2-(4-hydroxy-3-methoxycyclohexyl)-1-methylvinyl]-23,25-dimethoxy-13,19,21,27-tetramethyl-11,28-dioxa-4-azatricyclo[22.3.1.0^4,9]octacos-18-ene-2,3,10,16-tetraone]	< 1000
CCCC1C=C(C)CC(C)CC(OC)C2OC(O)(C(=O)C(=O)N3CCCCC3C(=O)OC(C(C)=CC3CCC(=O)C(OC)C3)C(C)CCC1=O)C(C)CC2OC (stereo not drawn) [Example 18, 17-Propyl-1-hydroxy-12-[2-(3-methoxy-4-oxocyclohexyl)-1-methylvinyl]-23,25-dimethoxy-13,19,21,27-tetramethyl-11,28-dioxa-4-azatricyclo[22.3.1.0^4,9]octacos-18-ene-2,3,10,16-tetraone.]	< 1000
COC1CC(C=C(C)C2OC(=O)C3CCCCN3C(=O)C(=O)C3(O)OC(C(OC)CC(C)CC(C)=Cc4ccn(CCO)c4CC(O)C2C)C(OC)CC3C)CCC1O (stereo not drawn) [Example 22, 1,14-Dihydroxy-12-[2-(4-hydroxy-3-methoxycyclohexyl)-1-methylvinyl]-26,28-dimethoxy-17-(2-hydroxyethyl)-13,22,24,30-tetramethyl-11,31-dioxa-4,17-diazatetracyclo[25.3.1.0.^4,9 .0^16,20]hentriaconta-16(20),18,21-triene-2,3,10-trione.]	< 1000
C=CCC1C=C(C)CC(C)CC(OC)C2OC(O)(C(=O)C(=O)N3CCCCC3C(=O)OC(C(C)=CC3CCC(OCOCCOC)C(OC)C3)C(C)C(O)CC1=O)C(C)CC2OC (stereo not drawn) [Example 27]	< 1000
C=CCC1C=C(C)CC(C)CC(OC)C2OC(O)(C(C)CC2OC)C2(CO2)C(=O)N2CCCCC2C(=O)OC(C(C)=CC2CCC(O)C(OC)C2)C(C)C(O)CC1=O (stereo not drawn) [Example 30, 17-Allyl-1,14-dihydroxy-12-[2-(4-hydroxy-3-methoxycyclohexyl)-1-methylvinyl]-23,25-dimethoxy-13,19,21, 27-tetramethyl-11,28-dioxa-4-aza-spiro[tricyclo [22.3.1.0^4,9]octacos-18-ene-2,2'-oxirane]-3,10,16-trione.]	< 1000
COC1CC(C=C(C)C2OC(=O)C3CCCCN3C(=O)C(=O)C3(O)OC(C(OC)CC(C)CC(C)=CC4=C(CC(O)C2C)OC(C[Se]c2ccccc2)C4)C(OC)CC3C)CCC1O (stereo not drawn) [Example 32, 1,14-Dihydroxy-12-[2-(4-hydroxy-3-methoxycyclohexyl)-1-methylvinyl]-26,28-dimethoxy-18-[(phenylseleno)methyl]-13, 22,24,30-tetramethyl-11,17,31-trioxa-4-azatetracyclo[25.3.1. 0.^4,90.^16,20]hentriaconta-16(20),21-diene-2,3,10-trione.]	< 1000
